Laboratory results reported in US12036212B2, “Enhancement of tumor response to chemotherapy by activation of the asmase/ceramide pathway through timed administration of a short-acting anti-angiogenic agent” (Memorial Sloan-Kettering Cancer Center, priority 2014, dated 2024).

Assays:
ceramide [1] = assay: Ceramide generation (diacylglycerol kinase assay) in BAEC; assay type: cell-based, bovine; details: paclitaxel 100 nM; for Ceramide generation: etoposide 50 μM, cisplatin 0.1-50 μM
Protocol: BAEC were established from the intima of bovine aorta as described^1. Stock cultures were grown in 100-mm dishes in Dulbecco's modified Eagle's medium (DMEM) supplemented with glucose (1 g/liter), 5% heat-inactivated calf serum (CS), penicillin (50 units/ml), and streptomycin (50 μg/ml). Purified human recombinant bFGF (1 ng/ml; R&D Systems, Inc., Minneapolis, MN) was added every other day during the exponential growth phase. […] These plateau phase cells were either used for experiments, or further sub-cultured (up to a maximum of 10 times) at a split ratio of 1:8. For sub-culturing, monolayers were dissociated with STV (0.05% trypsin and 0.02% EDTA in PBS) for 2-3 min at 22° C., washed twice in 5% CS-DMEM, and resuspended in DMEM with supplements as above. These mild conditions of trypsinization were sufficient to detach cells but not injure, stimulate, or affect cell function in a detectable way. BAEC were maintained at 37° C. in 10% CO2 humidified incubators.
After treatment, cells were placed on ice, washed with cold PBS, and lipids were extracted by addition of scraped cells in methanol to an equal volume of chloroform and 0.6 volume of buffered saline/EDTA solution (135 mM NaCl, 4.5 mM KCl, 1.5 mM CaCl2), 0.5 mM MgCl2, 5.6 mM glucose, 10 mM HEPES pH 7.2, 10 mM EDTA). Lipids in the organic phase extract were dried under N2 and subjected to mild alkaline hydrolysis (0.1 N methanolic KOH for 1 hour at 37° C.) to remove glycerophospholipids. Samples were re-extracted, and the organic phase was dried under N2. Ceramide contained in each sample was resuspended in a 100 μl reaction mixture containing 150 μg of cardiolipin, 280 μM diethylenetriaminepentaacetic acid, 51 mM octyl-β-glucopyranoside (Calbiochem), 50 mM NaCl, 51 mM imidazole, 1 mM EDTA, 12.5 mM MgCl2, 2 mM dithiothreitol, 0.7% glycerol, 70 μM β-mercaptoethanol, 1 mM ATP, 10 μCi of [γ-^32P]ATP, 35 μg/ml Escherichia coli diacylglycerol kinase (Calbiochem) at pH 6.5. After 30 minutes at room temperature, the reaction was stopped by extraction of lipids with 1 ml of chloroform:methanol:1 N HCl (100:100:1), 170 μl of buffered saline solution (BSS) (135 mM NaCl, 1.5 mM CaCl2, 0.5 mM MgCl2, 5.6 mM glucose, and 10 mM HEPES (pH 72), and 30 μl of 100 mM EDTA. The lower organic phase was dried under N2. Ceramide-1 phosphate was resolved by thin-layer chromatography on silica gel 60 plates (Whatman) using a solvent system of chloroform:methanol:acetic acid (65:15:5, v/v/v) and detected by autoradiography, and incorporated ^32P was quantified by liquid scintillation counting. The level of ceramide was determined by comparison with a standard curve generated concomitantly of known amounts of ceramide.
To test the effect of chemotherapy on ASMase signaling and ceramide production, BAEC were treated with paclitaxel (100 nM) and ASMase activity was determined by radioenzymatic assay (Rotolo et al, infra) using [^14C-methylcholine] sphingomyelin (Amersham) as substrate (FIG. 1A). […] Ceramide generation was monitored using the diacylglycerol kinase assay (Stancevic et al. PLoS ONE 8, e69025, 2013). […]
(§1) To determine the generality of the results observed, experiments were carried out using an additional endothelial cell line, human coronary artery endothelial cells (HCAEC); experiments were also performed using a different chemotherapeutic agent. […] Next, HCAEC were treated with paclitaxel (100 nM) (data not shown) and etoposide (50 μM) (FIG. 1F), and ceramide generation was evaluated. […]

ceramide [2] = assay: Ceramide generation in HCAEC; assay type: cell-based, human; details: paclitaxel 100 nM, etoposide 50 μM, cisplatin 0.1-50 μM
Protocol: HCAEC were obtained from Clonetics™ Coronary Artery Endothelial Cell Systems (Cambrex Bio Science Inc.). For HCAEC culturing and sub-culturing Clonetics cell system components were used: EBM®-2, Endothelial Cell Basal Medium-2 with addition of Clonetics EGM-2-MV SingleQuots containing growth supplements (Cambrex) (Biomedical Technologies, Inc.). For sub-culturing, monolayers were dissociated with Clonetics® Trypsin/EDTA solution for 2-3 min at 22° C. at a split ratio of 1:4 to expand the cell population for experiments. HCAEC cultures were maintained at 37° C. in 5% CO2 humidified incubators.
After treatment, cells were placed on ice, washed with cold PBS, and lipids were extracted by addition of scraped cells in methanol to an equal volume of chloroform and 0.6 volume of buffered saline/EDTA solution (135 mM NaCl, 4.5 mM KCl, 1.5 mM CaCl2), 0.5 mM MgCl2, 5.6 mM glucose, 10 mM HEPES pH 7.2, 10 mM EDTA). […] After 30 minutes at room temperature, the reaction was stopped by extraction of lipids with 1 ml of chloroform:methanol:1 N HCl (100:100:1), 170 μl of buffered saline solution (BSS) (135 mM NaCl, 1.5 mM CaCl2, 0.5 mM MgCl2, 5.6 mM glucose, and 10 mM HEPES (pH 72), and 30 μl of 100 mM EDTA. The lower organic phase was dried under N2. Ceramide-1 phosphate was resolved by thin-layer chromatography on silica gel 60 plates (Whatman) using a solvent system of chloroform:methanol:acetic acid (65:15:5, v/v/v) and detected by autoradiography, and incorporated ^32P was quantified by liquid scintillation counting. The level of ceramide was determined by comparison with a standard curve generated concomitantly of known amounts of ceramide.
as §1

Structure (SMILES) | Ceramide generation persisted for (ceramide [1]) | Ceramide generation (ceramide [1]) | Ceramide generation (ceramide [2])
CC(=O)O[C@H]1C(=O)[C@@]2(C)[C@H]([C@H](OC(=O)c3ccccc3)[C@]3(O)C[C@H](OC(=O)[C@H](O)[C@@H](NC(=O)c4ccccc4)c4ccccc4)C(C)=C1C3(C)C)[C@]1(OC(C)=O)CO[C@@H]1C[C@@H]2O [paclitaxel] | 30 min | peaked within minutes | leads to the generation of ceramide
N.N.[Cl][Pt][Cl] [cisplatin] |  | failed to activate ASMase and result in generation of ceramide | failed to activate ASMase and result in generation of ceramide
